Measured values reported in the kinase profiling compilation of Christmann-Franck et al. (2016).

Columns and labels:
Test in all cases: radiometric filter-binding kinase assay
[1] = system: AKT2 (human), P31751 [S474D]
BTK (human) = BTK (human) (UniProt Q06187)
CDK2 CCNA2 (human) = CDK2 CCNA2 (human) (UniProt P20248+P24941)
CHEK2 (human) = CHEK2 (human) (UniProt O96017)
CSK (human) = CSK (human) (UniProt P41240)
CSNK1D (human) = CSNK1D (human) (UniProt P48730)
FLT1 (human) = FLT1 (human) (UniProt P17948)
IKBKB (human) = IKBKB (human) (UniProt O14920)
IKBKE (human) = IKBKE (human) (UniProt Q14164)
INSRR (human) = INSRR (human) (UniProt P14616)
MAP2K1 (human) = MAP2K1 (human) (UniProt Q02750)
MAPK1 (human) = MAPK1 (human) (UniProt P28482)
MAPK14 (human) = MAPK14 (human) (UniProt Q16539)
MAPK15 (human) = MAPK15 (human) (UniProt Q8TD08)
MAPK3 (human) = MAPK3 (human) (UniProt P27361)
MAPKAPK3 (human) = MAPKAPK3 (human) (UniProt Q16644)
MKNK2 (human) = MKNK2 (human) (UniProt Q9HBH9)
NEK2 (human) = NEK2 (human) (UniProt P51955)
NEK6 (human) = NEK6 (human) (UniProt Q9HC98)
PAK7 (human) = PAK7 (human) (UniProt Q9P286)
PIM2 (human) = PIM2 (human) (UniProt Q9P1W9)
PLK1 (human) = PLK1 (human) (UniProt P53350)
PRKAA1 or PRKAA2 (rat) = details: accession and sequence are those of the human protein
PRKACA (human) = PRKACA (human) (UniProt P17612)
RIPK2 (human) = RIPK2 (human) (UniProt O43353)
RPS6KA1 KD1 KD2 (human) = RPS6KA1 KD1 KD2 (human) (UniProt Q15418)
RPS6KA3 KD1 KD2 (human) = RPS6KA3 KD1 KD2 (human) (UniProt P51812)
RPS6KA5 KD1 KD2 (human) = RPS6KA5 KD1 KD2 (human) (UniProt O75582)
[2] = system: RPS6KB1 (human), P23443 [T412E]
SRC (human) = SRC (human) (UniProt P12931)
SYK (human) = SYK (human) (UniProt P43405)
TTK (human) = TTK (human) (UniProt P33981)

NEK6 (human), sequence (Q9HC98 whole entry, looked up): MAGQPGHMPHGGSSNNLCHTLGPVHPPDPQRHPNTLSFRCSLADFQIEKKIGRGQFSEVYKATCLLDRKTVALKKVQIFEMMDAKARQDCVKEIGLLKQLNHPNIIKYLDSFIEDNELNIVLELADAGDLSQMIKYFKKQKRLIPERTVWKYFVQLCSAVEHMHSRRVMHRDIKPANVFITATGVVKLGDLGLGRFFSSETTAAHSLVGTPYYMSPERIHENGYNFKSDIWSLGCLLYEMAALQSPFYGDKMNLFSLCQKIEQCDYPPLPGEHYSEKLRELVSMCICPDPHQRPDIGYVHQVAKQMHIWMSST
CHEK2 (human), sequence (O96017 whole entry, looked up): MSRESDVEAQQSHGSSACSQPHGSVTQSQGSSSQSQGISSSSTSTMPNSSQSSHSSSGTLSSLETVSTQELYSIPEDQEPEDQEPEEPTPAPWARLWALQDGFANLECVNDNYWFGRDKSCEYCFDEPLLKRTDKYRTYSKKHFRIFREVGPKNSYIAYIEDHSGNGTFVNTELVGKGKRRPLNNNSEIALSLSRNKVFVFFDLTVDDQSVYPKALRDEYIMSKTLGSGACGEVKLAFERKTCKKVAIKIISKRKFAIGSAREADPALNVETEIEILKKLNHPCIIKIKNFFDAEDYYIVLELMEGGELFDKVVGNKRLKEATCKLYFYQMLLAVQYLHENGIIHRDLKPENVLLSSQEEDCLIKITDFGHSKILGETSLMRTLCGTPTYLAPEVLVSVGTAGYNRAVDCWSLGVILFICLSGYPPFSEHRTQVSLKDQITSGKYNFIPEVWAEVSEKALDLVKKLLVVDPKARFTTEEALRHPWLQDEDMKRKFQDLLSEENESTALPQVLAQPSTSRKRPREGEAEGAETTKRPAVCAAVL
MKNK2 (human), sequence (Q9HBH9 whole entry, looked up): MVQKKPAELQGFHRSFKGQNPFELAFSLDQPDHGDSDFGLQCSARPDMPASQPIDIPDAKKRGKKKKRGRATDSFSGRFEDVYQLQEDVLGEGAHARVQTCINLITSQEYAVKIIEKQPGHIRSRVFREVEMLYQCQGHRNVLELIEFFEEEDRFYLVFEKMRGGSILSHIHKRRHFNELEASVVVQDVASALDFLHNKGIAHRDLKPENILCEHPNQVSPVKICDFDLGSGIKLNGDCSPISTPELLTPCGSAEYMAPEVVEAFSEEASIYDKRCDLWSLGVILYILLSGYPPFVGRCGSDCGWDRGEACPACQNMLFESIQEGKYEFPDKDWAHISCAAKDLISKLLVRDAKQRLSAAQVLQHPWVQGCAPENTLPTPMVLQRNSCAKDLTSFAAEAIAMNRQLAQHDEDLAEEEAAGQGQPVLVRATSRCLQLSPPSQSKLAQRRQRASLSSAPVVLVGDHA
BTK (human), sequence (Q06187 whole entry, looked up): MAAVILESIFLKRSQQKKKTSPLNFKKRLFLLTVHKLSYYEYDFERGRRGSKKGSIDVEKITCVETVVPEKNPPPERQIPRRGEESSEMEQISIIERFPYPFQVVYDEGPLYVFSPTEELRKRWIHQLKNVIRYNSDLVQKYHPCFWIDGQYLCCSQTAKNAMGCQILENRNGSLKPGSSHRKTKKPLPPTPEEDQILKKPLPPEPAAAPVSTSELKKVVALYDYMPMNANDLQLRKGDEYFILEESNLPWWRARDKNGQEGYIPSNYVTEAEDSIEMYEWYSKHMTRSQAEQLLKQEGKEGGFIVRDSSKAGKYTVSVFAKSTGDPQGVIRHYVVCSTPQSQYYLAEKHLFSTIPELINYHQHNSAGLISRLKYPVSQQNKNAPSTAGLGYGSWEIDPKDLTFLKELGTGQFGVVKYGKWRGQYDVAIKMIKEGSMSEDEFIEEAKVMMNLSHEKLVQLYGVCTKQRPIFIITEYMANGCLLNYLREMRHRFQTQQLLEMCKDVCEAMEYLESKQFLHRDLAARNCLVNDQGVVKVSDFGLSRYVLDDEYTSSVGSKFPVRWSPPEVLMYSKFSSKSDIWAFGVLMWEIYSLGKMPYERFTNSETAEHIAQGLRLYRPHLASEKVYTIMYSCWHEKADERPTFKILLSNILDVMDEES
MAPK3 (human), sequence (P27361 whole entry, looked up): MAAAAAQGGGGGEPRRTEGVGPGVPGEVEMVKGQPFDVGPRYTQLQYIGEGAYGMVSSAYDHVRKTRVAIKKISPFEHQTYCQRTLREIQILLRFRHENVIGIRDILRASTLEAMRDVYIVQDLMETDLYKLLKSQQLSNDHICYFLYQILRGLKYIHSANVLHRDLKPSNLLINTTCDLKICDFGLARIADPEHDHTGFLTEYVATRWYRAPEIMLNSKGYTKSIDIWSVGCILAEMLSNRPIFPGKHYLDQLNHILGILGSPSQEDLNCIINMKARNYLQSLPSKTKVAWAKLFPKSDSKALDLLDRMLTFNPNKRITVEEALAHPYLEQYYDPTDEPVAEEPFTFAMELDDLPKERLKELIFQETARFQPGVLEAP
FLT1 (human), sequence (P17948 whole entry, looked up): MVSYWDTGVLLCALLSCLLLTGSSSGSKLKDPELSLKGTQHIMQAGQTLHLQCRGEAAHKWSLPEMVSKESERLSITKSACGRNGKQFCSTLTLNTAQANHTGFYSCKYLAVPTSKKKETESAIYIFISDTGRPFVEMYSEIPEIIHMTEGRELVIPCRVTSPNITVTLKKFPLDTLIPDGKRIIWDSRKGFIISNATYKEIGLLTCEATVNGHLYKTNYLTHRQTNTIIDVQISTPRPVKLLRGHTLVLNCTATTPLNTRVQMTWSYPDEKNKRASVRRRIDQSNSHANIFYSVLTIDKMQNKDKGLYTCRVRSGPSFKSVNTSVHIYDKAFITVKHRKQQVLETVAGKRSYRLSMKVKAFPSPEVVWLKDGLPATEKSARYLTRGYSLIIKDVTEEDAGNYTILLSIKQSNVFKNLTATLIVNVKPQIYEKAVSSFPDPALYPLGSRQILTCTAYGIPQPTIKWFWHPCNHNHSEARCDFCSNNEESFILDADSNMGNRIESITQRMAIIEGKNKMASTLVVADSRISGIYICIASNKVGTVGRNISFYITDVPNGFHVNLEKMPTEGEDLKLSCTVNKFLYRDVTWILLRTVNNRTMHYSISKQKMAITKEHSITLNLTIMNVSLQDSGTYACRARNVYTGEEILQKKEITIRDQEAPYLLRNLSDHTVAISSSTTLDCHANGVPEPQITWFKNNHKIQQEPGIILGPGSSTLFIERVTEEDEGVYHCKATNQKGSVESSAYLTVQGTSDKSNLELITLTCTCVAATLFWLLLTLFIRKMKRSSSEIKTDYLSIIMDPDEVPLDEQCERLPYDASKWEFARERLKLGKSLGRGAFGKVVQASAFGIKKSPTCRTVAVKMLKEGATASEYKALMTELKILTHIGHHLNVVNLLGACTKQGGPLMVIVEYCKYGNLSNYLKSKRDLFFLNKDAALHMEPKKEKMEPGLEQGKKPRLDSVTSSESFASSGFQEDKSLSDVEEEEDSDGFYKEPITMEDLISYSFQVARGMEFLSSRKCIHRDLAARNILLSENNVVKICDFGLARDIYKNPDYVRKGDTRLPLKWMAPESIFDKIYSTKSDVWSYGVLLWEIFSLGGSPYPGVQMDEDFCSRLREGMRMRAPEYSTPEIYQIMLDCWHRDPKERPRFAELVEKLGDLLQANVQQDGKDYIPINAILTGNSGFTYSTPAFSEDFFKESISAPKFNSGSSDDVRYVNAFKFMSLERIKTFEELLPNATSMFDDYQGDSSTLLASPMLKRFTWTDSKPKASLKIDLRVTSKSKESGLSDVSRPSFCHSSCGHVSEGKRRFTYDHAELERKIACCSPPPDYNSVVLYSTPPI
RPS6KA1 KD1 KD2 (human), sequence (Q15418 whole entry, looked up): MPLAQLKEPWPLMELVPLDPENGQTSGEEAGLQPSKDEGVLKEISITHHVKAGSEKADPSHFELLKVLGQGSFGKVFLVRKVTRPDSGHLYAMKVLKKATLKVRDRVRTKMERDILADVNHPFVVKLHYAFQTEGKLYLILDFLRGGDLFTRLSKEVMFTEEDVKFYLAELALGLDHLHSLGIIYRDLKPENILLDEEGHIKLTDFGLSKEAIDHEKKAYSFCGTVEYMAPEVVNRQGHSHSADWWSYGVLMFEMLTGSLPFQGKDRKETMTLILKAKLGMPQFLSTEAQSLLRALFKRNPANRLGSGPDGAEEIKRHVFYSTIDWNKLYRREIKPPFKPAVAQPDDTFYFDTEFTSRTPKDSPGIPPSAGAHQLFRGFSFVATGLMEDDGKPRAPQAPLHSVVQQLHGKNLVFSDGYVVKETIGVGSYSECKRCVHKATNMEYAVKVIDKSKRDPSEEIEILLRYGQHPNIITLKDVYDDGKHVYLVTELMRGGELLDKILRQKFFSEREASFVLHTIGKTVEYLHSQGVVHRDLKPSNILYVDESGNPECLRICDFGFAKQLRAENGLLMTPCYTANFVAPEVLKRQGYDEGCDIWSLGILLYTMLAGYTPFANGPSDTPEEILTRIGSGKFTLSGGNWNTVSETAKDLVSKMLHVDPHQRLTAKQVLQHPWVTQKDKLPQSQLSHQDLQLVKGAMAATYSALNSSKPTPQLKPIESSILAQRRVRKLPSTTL
SRC (human), sequence (P12931 whole entry, looked up): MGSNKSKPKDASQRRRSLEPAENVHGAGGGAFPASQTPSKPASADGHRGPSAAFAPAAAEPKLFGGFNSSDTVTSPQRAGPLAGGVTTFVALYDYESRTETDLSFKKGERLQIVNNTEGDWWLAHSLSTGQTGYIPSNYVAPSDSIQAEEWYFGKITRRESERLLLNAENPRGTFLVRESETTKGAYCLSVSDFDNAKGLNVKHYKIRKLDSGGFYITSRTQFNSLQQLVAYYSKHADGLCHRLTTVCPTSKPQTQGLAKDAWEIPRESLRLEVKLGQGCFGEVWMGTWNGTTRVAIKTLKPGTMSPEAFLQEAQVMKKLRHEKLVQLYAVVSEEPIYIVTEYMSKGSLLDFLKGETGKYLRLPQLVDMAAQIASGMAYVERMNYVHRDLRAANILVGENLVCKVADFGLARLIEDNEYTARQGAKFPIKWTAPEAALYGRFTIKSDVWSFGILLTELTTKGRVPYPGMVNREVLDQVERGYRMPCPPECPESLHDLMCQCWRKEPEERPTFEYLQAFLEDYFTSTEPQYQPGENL

`CN1C(=O)[C@@H](Cc2c[nH]c3ccccc23)NC1=S` was tested, and the residual activity ([1]; compound 1.0 µM) was 79%, the residual activity ([1]; compound 10.0 µM) was 68% and the residual activity (BTK (human); compound 1.0 µM) was 99%. It also gave a residual activity (BTK (human); compound 10.0 µM) of 89%, a residual activity (CDK2 CCNA2 (human); compound 1.0 µM) of 77% and a residual activity (CDK2 CCNA2 (human); compound 10.0 µM) of 93%. The residual activity (CHEK2 (human); compound 1.0 µM) was 92%, the residual activity (CHEK2 (human); compound 10.0 µM) was 86% and the residual activity (CSK (human); compound 1.0 µM) was 98%. For the same compound, the residual activity (CSK (human); compound 10.0 µM) was 110%, the residual activity (CSNK1D (human); compound 1.0 µM) was 94% and the residual activity (CSNK1D (human); compound 10.0 µM) was 101%. It also gave a residual activity (FLT1 (human); compound 1.0 µM) of 91%, a residual activity (FLT1 (human); compound 10.0 µM) of 88% and a residual activity (IKBKB (human); compound 1.0 µM) of 95%. The residual activity (IKBKB (human); compound 10.0 µM) was 96%, the residual activity (IKBKE (human); compound 1.0 µM) was 90% and the residual activity (IKBKE (human); compound 10.0 µM) was 86%. The residual activity (INSRR (human); compound 1.0 µM) was 81%, the residual activity (INSRR (human); compound 10.0 µM) was 87% and the residual activity (MAP2K1 (human); compound 1.0 µM) was 85%. For the same compound, the residual activity (MAP2K1 (human); compound 10.0 µM) was 109%, the residual activity (MAPK1 (human); compound 1.0 µM) was 94% and the residual activity (MAPK1 (human); compound 10.0 µM) was 92%. It also gave a residual activity (MAPK14 (human); compound 1.0 µM) of 97%, a residual activity (MAPK14 (human); compound 10.0 µM) of 102% and a residual activity (MAPK15 (human); compound 1.0 µM) of 98%. For the same compound, the residual activity (MAPK15 (human); compound 10.0 µM) was 103%, the residual activity (MAPK3 (human); compound 10.0 µM) was 93% and the residual activity (MAPKAPK3 (human); compound 1.0 µM) was 119%. For the same compound, the residual activity (MAPKAPK3 (human); compound 10.0 µM) was 114%, the residual activity (MKNK2 (human); compound 1.0 µM) was 106% and the residual activity (MKNK2 (human); compound 10.0 µM) was 102%. The residual activity (NEK2 (human); compound 1.0 µM) was 86%, the residual activity (NEK2 (human); compound 10.0 µM) was 86% and the residual activity (NEK6 (human); compound 1.0 µM) was 89%. The residual activity (NEK6 (human); compound 10.0 µM) was 119%, the residual activity (PAK7 (human); compound 1.0 µM) was 119% and the residual activity (PAK7 (human); compound 10.0 µM) was 99%. For the same compound, the residual activity (PIM2 (human); compound 1.0 µM) was 95%, the residual activity (PIM2 (human); compound 10.0 µM) was 105% and the residual activity (PLK1 (human); compound 1.0 µM) was 81%. For the same compound, the residual activity (PLK1 (human); compound 10.0 µM) was 88%, the residual activity (PRKAA1 or PRKAA2 (rat); compound 1.0 µM) was 94% and the residual activity (PRKAA1 or PRKAA2 (rat); compound 10.0 µM) was 102%. It also gave a residual activity (PRKACA (human); compound 1.0 µM) of 95%, a residual activity (PRKACA (human); compound 10.0 µM) of 93% and a residual activity (RIPK2 (human); compound 10.0 µM) of 112%. It also gave a residual activity (RPS6KA1 KD1 KD2 (human); compound 1.0 µM) of 80%, a residual activity (RPS6KA1 KD1 KD2 (human); compound 10.0 µM) of 92% and a residual activity (RPS6KA3 KD1 KD2 (human); compound 1.0 µM) of 91%. It also gave a residual activity (RPS6KA3 KD1 KD2 (human); compound 10.0 µM) of 92%, a residual activity (RPS6KA5 KD1 KD2 (human); compound 1.0 µM) of 78% and a residual activity (RPS6KA5 KD1 KD2 (human); compound 10.0 µM) of 90%. It also gave a residual activity ([2]; compound 1.0 µM) of 83%, a residual activity ([2]; compound 10.0 µM) of 99% and a residual activity (SRC (human); compound 1.0 µM) of 98%. It also gave a residual activity (SRC (human); compound 10.0 µM) of 110%, a residual activity (SYK (human); compound 1.0 µM) of 84% and a residual activity (SYK (human); compound 10.0 µM) of 125%. It also gave a residual activity (TTK (human); compound 1.0 µM) of 98% and a residual activity (TTK (human); compound 10.0 µM) of 106%.

Compound `O=C(O)c1cc(N=Nc2ccc(S(=O)(=O)Nc3ccccn3)cc2)ccc1O` has a residual activity ([1]; compound 10.0 µM) of 94%, a residual activity (BTK (human); compound 1.0 µM) of 97% and a residual activity (BTK (human); compound 10.0 µM) of 74%. For the same compound, the residual activity (CDK2 CCNA2 (human); compound 1.0 µM) was 93%, the residual activity (CDK2 CCNA2 (human); compound 10.0 µM) was 107% and the residual activity (CHEK2 (human); compound 1.0 µM) was 108%. For the same compound, the residual activity (CHEK2 (human); compound 10.0 µM) was 103%, the residual activity (CSK (human); compound 1.0 µM) was 119% and the residual activity (CSK (human); compound 10.0 µM) was 119%. It also gave a residual activity (CSNK1D (human); compound 1.0 µM) of 103%, a residual activity (CSNK1D (human); compound 10.0 µM) of 95% and a residual activity (FLT1 (human); compound 1.0 µM) of 102%. It also gave a residual activity (FLT1 (human); compound 10.0 µM) of 105%, a residual activity (IKBKB (human); compound 1.0 µM) of 107% and a residual activity (IKBKB (human); compound 10.0 µM) of 89%. The residual activity (IKBKE (human); compound 1.0 µM) was 92%, the residual activity (IKBKE (human); compound 10.0 µM) was 112% and the residual activity (INSRR (human); compound 10.0 µM) was 80%. For the same compound, the residual activity (MAP2K1 (human); compound 1.0 µM) was 86%, the residual activity (MAP2K1 (human); compound 10.0 µM) was 91% and the residual activity (MAPK1 (human); compound 1.0 µM) was 104%. For the same compound, the residual activity (MAPK1 (human); compound 10.0 µM) was 97%, the residual activity (MAPK14 (human); compound 1.0 µM) was 105% and the residual activity (MAPK14 (human); compound 10.0 µM) was 101%. It also gave a residual activity (MAPK15 (human); compound 1.0 µM) of 111%, a residual activity (MAPK15 (human); compound 10.0 µM) of 109% and a residual activity (MAPK3 (human); compound 1.0 µM) of 103%. The residual activity (MAPK3 (human); compound 10.0 µM) was 110%, the residual activity (MAPKAPK3 (human); compound 1.0 µM) was 116% and the residual activity (MAPKAPK3 (human); compound 10.0 µM) was 85%. The residual activity (MKNK2 (human); compound 1.0 µM) was 76%, the residual activity (MKNK2 (human); compound 10.0 µM) was 99% and the residual activity (NEK2 (human); compound 10.0 µM) was 97%. For the same compound, the residual activity (NEK6 (human); compound 1.0 µM) was 98%, the residual activity (NEK6 (human); compound 10.0 µM) was 97% and the residual activity (PAK7 (human); compound 1.0 µM) was 104%. For the same compound, the residual activity (PAK7 (human); compound 10.0 µM) was 96%, the residual activity (PIM2 (human); compound 1.0 µM) was 98% and the residual activity (PIM2 (human); compound 10.0 µM) was 77%. It also gave a residual activity (PLK1 (human); compound 1.0 µM) of 106%, a residual activity (PLK1 (human); compound 10.0 µM) of 102% and a residual activity (PRKAA1 or PRKAA2 (rat); compound 1.0 µM) of 101%. The residual activity (PRKACA (human); compound 1.0 µM) was 111%, the residual activity (PRKACA (human); compound 10.0 µM) was 114% and the residual activity (RIPK2 (human); compound 1.0 µM) was 115%. For the same compound, the residual activity (RIPK2 (human); compound 10.0 µM) was 95%, the residual activity (RPS6KA1 KD1 KD2 (human); compound 1.0 µM) was 129% and the residual activity (RPS6KA1 KD1 KD2 (human); compound 10.0 µM) was 122%. The residual activity (RPS6KA3 KD1 KD2 (human); compound 1.0 µM) was 97%, the residual activity (RPS6KA3 KD1 KD2 (human); compound 10.0 µM) was 91% and the residual activity (RPS6KA5 KD1 KD2 (human); compound 1.0 µM) was 109%. The residual activity (RPS6KA5 KD1 KD2 (human); compound 10.0 µM) was 95%, the residual activity ([2]; compound 1.0 µM) was 80% and the residual activity ([2]; compound 10.0 µM) was 90%. The residual activity (SRC (human); compound 1.0 µM) was 94%, the residual activity (SRC (human); compound 10.0 µM) was 83% and the residual activity (SYK (human); compound 1.0 µM) was 101%. It also gave a residual activity (SYK (human); compound 10.0 µM) of 107%, a residual activity (TTK (human); compound 1.0 µM) of 98% and a residual activity (TTK (human); compound 10.0 µM) of 88%.
